A short description of data set [1]: UV/Vis spectroscopy of film samples against a reference sample. The data set is classed as physicochemical. As to conditions: PVA 18-88/glycerol film, FSG medium pH 1.2, spectrum compared with a reference sample. The method, then:
Further, the film was analyzed for the content of Baclofen. To this end, 6 circular samples with a diameter of 1.9 cm (2.84 cm^2) were cut at random positions of the film and analyzed with a UV/Vis spectroscopy in FSG medium, pH 1.2. The absorption spectrum is shown in FIG. 10 in comparison to a reference sample comprising Baclofen solved in FSG medium, pH 1.2.

Data set [2] relates to transient lower esophageal sphincter relaxations. The following applies: after systemic administration (Lidums 2000); cited from earlier work.
The conditions of data set [3]: oral administration, clinical use, 15 to 75 mg per day; cited from earlier work.
Data set [4] deals with reflux episodes and transient lower esophageal sphincter relaxations. As to conditions: meta-analysis of nine clinical studies; cited from earlier work.

As to `NCC(CC(=O)O)c1ccc(Cl)cc1` (stereo not drawn) [Baclofen, 4-Amino-3-(4-chlorphenyl) butyric acid], in data set [1], the “stability of Baclofen in the polymer film” value was “can be stably prepared in a film”. In addition, in data set [2], the “transient lower esophageal sphincter relaxations” value is given as “control transient lower esophageal sphincter relaxations”. In addition, the “tolerability / side effects” value in data set [3] is on record as “poor tolerability due to severe side effects”. Further, in data set [4], the “incidence of transient lower esophageal sphincter relaxations” value is listed as “decreased”, the “length of reflux episodes” value was “decreased” and the “number of reflux episodes” value is “decreased”.

Source of the values: patent publication US20250228772A1, “DRUG DELIVERY SYSTEM COMPRISING A REFLUX INHIBITOR FOR THE APPLICATION TO ESOPHAGEAL MUCOUS MEMBRANES” (EsoCap AG, priority 2022, published 2025).
